A short description of the series: Measurement of log P values by HPLC on reversed phase columns (methods [a] pH 2.3, [b] pH 2.7, [c] pH 7.8). It counts as physicochemical. The procedure, abridged:
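Retention times were converted to log P by linear interpolation between linear alkan-2-one standards (3 to 16 carbons) of known log P. Eluents, each with 10% to 95% acetonitrile gradient: phosphoric acid 0.1% at pH 2.3 [a]; formic acid 0.1% at pH 2.7, LC-MS [b]; ammonium hydrogen carbonate 0.001 molar at pH 7.8, LC-MS [c].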

The mark [1] stands for this setting: HPLC on reversed phase columns, method [b], pH 2.7.
The mark [2] stands for this setting: method [b], HPLC reversed phase, pH 2.7.
The mark [3] stands for this setting: method [c], HPLC reversed phase, pH 7.8.

For the compound `Cc1nn(C)cc1C(=O)NC1CC1c1ccc(F)cc1` (stereo not shown) [Example 16], the logP under setting [1] is 2.13^[b].

On to `Cc1nn(C)c(F)c1C(=O)NC1CC1c1ccc(F)cc1` (stereo not shown) [Example 18], for which the logP under setting [1] is 3.01^[b].

Consider `Cc1nn(C)cc1C(=O)NC1CC1c1ccc(Cl)cc1` (stereo not shown) [Example 19], for which the logP under setting [1] is 2.63^[b].

For `Cc1nn(C)c(C)c1C(=O)NC1CC1c1ccc(Br)cc1` (stereo not shown) [Example 21], the logP under setting [1] is 3.26^[b].

Consider `Cc1nn(C)cc1C(=O)NC1CC1c1ccc(Br)cc1` (stereo not shown) [Example 23], for which, under setting [1], the logP was 3.20^[b].

For `Cn1cc(C(=O)NC2CC2c2ccc(Br)cc2)c(C(F)(F)F)n1` (stereo not shown) [Example 25], the logP under setting [1] is 3.23^[b].

For `Cc1nc(C(F)(F)F)c(C(=O)NC2CC2c2ccc(F)cc2)s1` (stereo not shown) [Example 26], the logP under setting [1] is 3.87^[b].

`Cc1nc(C(F)(F)F)c(C(=O)NC2CC2c2ccc(Cl)cc2)s1` (stereo not shown) [Example 28]: the logP under setting [1] is 4.35^[b].

Regarding `O=C(NC1CC1c1ccc(Cl)cc1)c1ccc(Cl)nc1` (stereo not shown) [Example 31], the logP under setting [1] is 3.53^[b].

With `O=C(NC1CC1c1ccc(Cl)cc1)c1cccnc1Cl` (stereo not shown) [Example 34], the logP is 2.43^[b] under setting [1] and 2.39^[c]; (HPLC on reversed phase columns, method [c], pH 7.8).

Turning to `O=C(NC1CC1c1ccc(Br)cc1)c1cccnc1Cl` (stereo not shown) [Example 35], under setting [1], the logP was 2.34^[b].

Take `O=C(NC1CC1c1ccc(F)cc1)c1cnc(Cl)cc1Cl` (stereo not shown) [Example 36]: the logP under setting [1] is 2.70^[b].

Consider `O=C(NC1CC1c1ccccc1)c1ccncc1` (stereo not shown) [Example 39], for which the logP under setting [1] was 1.30^[b].

For `O=C(NC1CC1c1ccccc1)c1ccccc1C(F)(F)F` (stereo not shown) [Example 40], under setting [1], the logP was 2.79^[b].

For the compound `O=C(NC1CC1c1ccccc1Cl)c1ccccc1Br` (stereo not shown) [Example 48], under setting [1], the logP is 3.19^[b].

As to `N#Cc1ccccc1C(=O)NC1CCCC1c1ccc(F)c(F)c1` (stereo not shown) [Example 137], under setting [2], the logP is 2.96^[b].

Turning to `Cn1cc(C(=O)N(C2CC2)C2CCCCC2c2ccccc2)c(C(F)F)n1` (stereo not shown) [Example 138], the logP under setting [2] is 3.60^[b].

Take `Cc1nn(C)c(F)c1C(=O)N(C1CC1)C1CCCCC1c1ccccc1` (stereo not shown) [Example 139]: the logP under setting [2] was 3.53^[b].

As to `Cn1cc(C(=O)N(C2CC2)C2CCCCC2c2ccccc2)c(C(F)(F)F)c1` (stereo not shown) [Example 140], under setting [2], the logP is 3.90^[b].

Take `Cc1nc(C(F)F)c(C(=O)N(C2CC2)C2CCCCC2c2ccccc2)s1` (stereo not shown) [Example 141]: the logP under setting [2] is 4.18^[b].

For `Cn1cc(C(=O)N(C2CC2)C2CCCCC2c2ccccc2)c(C(F)(F)F)n1` (stereo not shown) [Example 142], under setting [2], the logP is 3.96^[b].

`Cn1cc(C(=O)N(C2CC2)C2CCCCC2c2ccccc2)c(C(F)F)n1` (stereo not shown) [Example 143]: the logP under setting [2] was 3.55^[b].

Regarding `CCc1nn(C)c(F)c1C(=O)N(C1CC1)C1CCCCC1c1ccccc1` (stereo not shown) [Example 144], the logP under setting [2] was 3.83^[b].

For `Cn1cc(C(=O)N(C2CC2)C2CCCCC2c2ccccc2)c(I)n1` (stereo not shown) [Example 145], under setting [2], the logP was 3.60^[b].

With `Cc1nn(C)c(C)c1C(=O)N(C1CC1)C1CCCCC1c1ccccc1` (stereo not shown) [Example 146], under setting [2], the logP was 3.13^[b].

For `Cc1nc(C(F)(F)F)c(C(=O)N(C2CC2)C2CCCCC2c2ccccc2)s1` (stereo not shown) [Example 147], the logP under setting [2] is 4.69^[b].

Turning to `FC(F)(F)c1ccccc1C(=S)NC1CC1c1ccccc1` (stereo not shown) [Example 148], the logP under setting [2] is 3.69^[b].

As to `Fc1ccc(C2CCCC2NC(=S)c2sccc2C(F)(F)F)cc1F` (stereo not shown) [Example 149], the logP under setting [2] was 4.59^[b].

As to `Fc1ccc(C2CCCC2NC(=S)C2=C(C(F)(F)F)OCCS2)cc1F` (stereo not shown) [Example 150], under setting [2], the logP is 4.21^[b].

Regarding `Cn1cc(C(=O)NC2CC2c2ccc(Cl)cc2)c(C(F)F)n1` (stereo not shown) [Example 151], the logP under setting [2] was 2.30^[b].

Regarding `Cc1nn(C)c(F)c1C(=O)N(C1CC1)C1CCCCC1c1ccccc1Cl` (stereo not shown) [Example 154], the logP under setting [2] is 3.94^[b].

On to `Cn1cc(C(=O)N(C2CC2)C2CCCC2c2ccc(Cl)cc2Cl)c(C(F)F)n1` (stereo not shown) [Example 155], for which the logP under setting [2] was 4.23^[b].

Consider `Cn1cc(C(=O)N(C2CC2)C2CCCC2c2ccccc2Cl)c(C(F)F)n1` (stereo not shown) [Example 156], for which the logP under setting [2] was 3.85^[b].

Regarding `Cn1cc(C(=O)N(C2CC2)C2CCCCC2c2ccc(Cl)cc2Cl)c(C(F)F)n1` (stereo not shown) [Example 157], the logP under setting [2] was 4.59^[b].

For the compound `Cn1cc(C(=O)N(C2CC2)C2CCCCC2c2ccccc2Cl)c(C(F)F)n1` (stereo not shown) [Example 158], the logP under setting [2] is 4.03^[b].

`Cc1nn(C)c(F)c1C(=O)N(C1CC1)C1CCCC1c1ccc(Cl)cc1Cl` (stereo not shown) [Example 159]: the logP under setting [2] was 4.18^[b].

With `CCc1nn(C)c(F)c1C(=O)N(C1CC1)C1CCCC1c1ccc(Cl)cc1Cl` (stereo not shown) [Example 160], the logP under setting [2] was 4.65^[b].

As to `CCc1nn(C)c(F)c1C(=O)N(C1CC1)C1CCCCC1c1ccc(Cl)cc1Cl` (stereo not shown) [Example 161], the logP under setting [2] is 5.08^[b].

With `CCc1nn(C)c(F)c1C(=O)N(C1CC1)C1CCCCC1c1ccccc1Cl` (stereo not shown) [Example 162], the logP under setting [2] is 4.39^[b].

With `Cc1cc(C(=O)N(C2CC2)C2CCCCC2c2ccc(Cl)cc2Cl)c(C)o1` (stereo not shown) [Example 163], the logP under setting [2] is 5.85^[b].

Turning to `Cc1nn(C)c(F)c1C(=O)N(C1CC1)C1CCCC1c1ccccc1Cl` (stereo not shown) [Example 164], the logP under setting [2] is 3.71^[b].

As to `Cc1nn(C)c(F)c1C(=O)N(C1CC1)C1CCCCC1c1ccc(Cl)cc1Cl` (stereo not shown) [Example 165], the logP under setting [2] is 4.59^[b].

In the case of `Cn1nc(C(F)F)c(C(=O)N(C2CC2)C2CCCC2c2ccc(Cl)cc2Cl)c1F` (stereo not shown) [Example 166], under setting [2], the logP was 4.67^[b].

Consider `Cn1nc(C(F)F)c(C(=O)N(C2CC2)C2CCCC2c2ccccc2Cl)c1F` (stereo not shown) [Example 167], for which, under setting [2], the logP was 4.31^[b].

Consider `Cn1nc(C(F)F)c(C(=O)N(C2CC2)C2CCCCC2c2ccc(Cl)cc2Cl)c1F` (stereo not shown) [Example 168], for which the logP under setting [2] was 5.05^[b].

For `Cn1nc(C(F)F)c(C(=O)N(C2CC2)C2CCCCC2c2ccccc2Cl)c1F` (stereo not shown) [Example 169], under setting [2], the logP is 4.49^[b].

As to `Cc1nc(C(F)F)c(C(=O)N(C2CC2)C2CCCCC2c2ccc(Cl)cc2Cl)s1` (stereo not shown) [Example 170], under setting [2], the logP is 5.25^[b].

In the case of `Cc1nc(C(F)F)c(C(=O)N(C2CC2)C2CCCCC2c2ccccc2Cl)s1` (stereo not shown) [Example 171], the logP under setting [2] was 4.67^[b].

Consider `CCc1nn(C)c(F)c1C(=O)N(C1CC1)C1CCCC1c1ccccc1Cl` (stereo not shown) [Example 172], for which, under setting [2], the logP was 4.21^[b].

For the compound `Cc1nc(C(F)F)c(C(=O)N(C2CC2)C2CCCC2c2ccc(Cl)cc2Cl)s1` (stereo not shown) [Example 173], the logP under setting [2] is 4.85^[b].

For `Cc1nc(C(F)F)c(C(=O)N(C2CC2)C2CCCC2c2ccccc2Cl)s1` (stereo not shown) [Example 174], under setting [2], the logP was 4.51^[b].

Regarding `Cc1cc(C(=O)N(C2CC2)C2CCCC2c2ccc(Cl)cc2Cl)c(C)o1` (stereo not shown) [Example 175], under setting [2], the logP is 5.39^[b].

With `Cc1cc(C(=O)N(C2CC2)C2CCCC2c2ccccc2Cl)c(C)o1` (stereo not shown) [Example 176], the logP under setting [2] is 4.95^[b].

Consider `Cc1cc(C(=O)N(C2CC2)C2CCCCC2c2ccccc2Cl)c(C)o1` (stereo not shown) [Example 177], for which the logP under setting [2] is 5.17^[b].

`Cn1nc(C(F)(F)F)c(C(=O)NC2CC2c2ccccc2)c1F` (stereo not shown) [Example 178]: under setting [2], the logP was 2.63^[b].

With `Cn1nc(C(F)F)c(C(=O)NC2CC2c2ccc(Cl)cc2)c1F` (stereo not shown) [Example 179], under setting [2], the logP was 2.61^[b].

Take `Cn1nc(C(F)F)c(C(=O)N(C2CC2)C2CCCCC2(C)c2ccccc2)c1F` (stereo not shown) [Example 180]: under setting [2], the logP is 4.18^[b].

In the case of `Cn1nc(C(F)F)c(C(=O)NC2CCCCC2c2ccccc2)c1F` (stereo not shown) [Example 181], the logP under setting [2] is 3.13^[b].

Turning to `Cn1nc(C(F)F)c(C(=O)NC2CCCCC2c2ccccc2)c1F` (stereo not shown) [Example 182], the logP under setting [2] is 3.29^[b].

Take `Cn1nc(C(F)F)c(C(=O)NC2CCCCC2c2ccccc2)c1Cl` (stereo not shown) [Example 183]: under setting [2], the logP was 3.51^[b].

As to `Cn1nc(C(F)F)c(C(=O)NC2CCCCC2c2ccccc2)c1Cl` (stereo not shown) [Example 184], the logP under setting [2] was 3.33^[b].

In the case of `Cn1cc(C(=O)NC2CCCCC2c2ccccc2)c(C(F)F)n1` (stereo not shown) [Example 185], the logP under setting [2] is 2.76^[b].

On to `Cn1cc(C(=O)NC2CCCCC2c2ccccc2)c(C(F)F)n1` (stereo not shown) [Example 186], for which the logP under setting [2] is 3.00^[b].

Take `Cn1nc(C(F)F)c(C(=O)NC2CC2c2cccc(F)c2)c1F` (stereo not shown) [Example 187]: the logP under setting [2] was 2.59^[b].

Turning to `Cn1nc(C(F)F)c(C(=O)NC2CC2c2ccc(F)cc2)c1F` (stereo not shown) [Example 188], the logP under setting [2] is 2.59^[b].

Take `Cn1nc(C(F)F)c(C(=O)NC2CC2c2ccccc2C(F)(F)F)c1F` (stereo not shown) [Example 189]: the logP under setting [2] is 3.00^[b].

Regarding `Cn1nc(C(F)F)c(C(=S)N(C2CC2)C2CCCCC2(C)c2ccccc2)c1F` (stereo not shown) [Example 190], the logP under setting [2] is 5.01^[b].

As to `Cn1nc(C(F)F)c(C(=O)NC2CC2c2cccc(F)c2)c1Cl` (stereo not shown) [Example 191], the logP under setting [2] is 2.75^[b].

In the case of `Cn1nc(C(F)F)c(C(=O)NC2CC2c2ccc(F)cc2)c1Cl` (stereo not shown) [Example 192], the logP under setting [2] was 2.75^[b].

Consider `Cn1nc(C(F)F)c(C(=O)NC2CC2c2ccccc2C(F)(F)F)c1Cl` (stereo not shown) [Example 193], for which the logP under setting [2] is 3.15^[b].

Regarding `CN(C(=O)c1c(C(F)F)nn(C)c1F)C1CCCCC1c1ccccc1` (stereo not shown) [Example 196], under setting [2], the logP was 3.27^[b].

As to `CN(C(=O)c1c(C(F)F)nn(C)c1Cl)C1CCCCC1c1ccccc1` (stereo not shown) [Example 197], the logP under setting [2] was 3.63^[b].

`O=C(NC1CC1c1ccc(Cl)cc1)c1ccccc1Cl` (stereo not shown) [Example 198]: the logP reads like this: under setting [2], 3.09^[b]; under setting [3], 3.02^[c];.

`O=C(NC1CC1c1ccc(Cl)cc1)c1ccccc1I` (stereo not shown) [Example 199]: the logP reads like this: under setting [2], 3.24^[b]; under setting [3], 3.19^[c];.

On to `O=C(NC1CC1c1ccc(Cl)cc1)c1c(F)cccc1F` (stereo not shown) [Example 200], for which the logP was 2.94^[b] under setting [2] and 2.89^[c]; under setting [3].

Values taken from US20160075653A1, “NEMATICIDAL N-(PHENYLCYCLOALKYL)CARBOXAMIDES AND N-(PHENYLCYCLOALKYL)THIOCARBOXAMIDES” (BAYER CROPSCIENCE AKTIENGESELLSCHAFT, priority 2013, published 2016).
